Data from paper PMC6445163, “Design, synthesis, and evaluation of novel 2-phenylpropionic acid derivatives as dual COX inhibitory-antibacterial agents” (Journal of Enzyme Inhibition and Medicinal Chemistry, 2017).
Like-named read-outs stand apart in the source and are kept apart here. Marks after values point to notes of the source that are not given here.

Tests used:
COX-1 = target: T1, COX-1 (Ovis aries, UniProt P05979); assay: fluorometric COX-1 inhibitor screening kit assay; assay type: biochemical; conditions: for SI (selectivity index): IC50 (COX-1)/IC50 (COX-2); for IC50: fluorometric kit, 25 °C; for Selectivity: isoform preferred according to SI
T1 construct: purchased Biovision K548-100
T1 sequence (P05979 25-600): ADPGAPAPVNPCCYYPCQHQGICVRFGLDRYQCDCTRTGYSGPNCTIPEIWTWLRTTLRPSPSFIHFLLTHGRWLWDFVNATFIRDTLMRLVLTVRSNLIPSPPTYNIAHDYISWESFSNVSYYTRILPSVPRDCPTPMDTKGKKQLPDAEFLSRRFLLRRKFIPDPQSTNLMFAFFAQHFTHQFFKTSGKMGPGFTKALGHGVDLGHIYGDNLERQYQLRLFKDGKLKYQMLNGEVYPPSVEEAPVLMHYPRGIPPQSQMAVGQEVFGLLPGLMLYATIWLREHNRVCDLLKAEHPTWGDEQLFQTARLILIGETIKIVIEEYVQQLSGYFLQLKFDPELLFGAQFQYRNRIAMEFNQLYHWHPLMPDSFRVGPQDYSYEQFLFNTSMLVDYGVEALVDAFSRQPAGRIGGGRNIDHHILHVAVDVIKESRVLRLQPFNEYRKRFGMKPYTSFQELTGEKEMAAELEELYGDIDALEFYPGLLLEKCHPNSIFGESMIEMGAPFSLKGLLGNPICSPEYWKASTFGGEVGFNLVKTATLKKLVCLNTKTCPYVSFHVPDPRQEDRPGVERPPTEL
Procedure: (§1) Inhibitory potency of the compounds against COX-1 and COX-2 enzymes was determined using fluorometric COX-1 and COX-2 inhibitor screening kits (Biovision, Zurich, Switzerland). Experimental protocol was followed as described in the guides of the supplier[47]^,[48]. All of the pipettings in the assay were performed by Biotek Precision robotic system (BioTek Instruments, Inc., Winooski, VT). […] Appropriate two points (T1 and T2) in the linear range of the plot were chosen, and the corresponding fluorescence values (RFU1 and RFU2) were obtained. The slope for all samples, including enzyme control (EC), by dividing the net ΔRFU (RFU2–RFU1) values by the time ΔT (T2–T1) were calculated by using following equation: % Relative inhibition=(Slope of EC-Slope of S/Slope of EC)×100
(§2) This initial in vitro assay was done with two concentrations (10^−3 and 10^−4 M) for all compounds. […] The IC50 value was calculated from the plots of enzyme activity against concentrations by applying regression analyses on GraphPad Prism Version 5 (GraphPad Software, La Jolla, CA).
(§3) Selectivity indexes (SI) were expressed as IC50 (COX-1)/IC50 (COX-2). Selectivity toward COX-2 decreases as the corresponding SI decreases while selectivity toward COX-1 isoform increases as the corresponding SI decreases.

COX-2 = target: T2, COX-2 (Homo sapiens, UniProt P35354); assay: fluorometric COX-2 inhibitor screening kit assay; assay type: biochemical; conditions: 25 °C
T2 construct: purchased Biovision K547-100
T2 sequence (P35354 18-604): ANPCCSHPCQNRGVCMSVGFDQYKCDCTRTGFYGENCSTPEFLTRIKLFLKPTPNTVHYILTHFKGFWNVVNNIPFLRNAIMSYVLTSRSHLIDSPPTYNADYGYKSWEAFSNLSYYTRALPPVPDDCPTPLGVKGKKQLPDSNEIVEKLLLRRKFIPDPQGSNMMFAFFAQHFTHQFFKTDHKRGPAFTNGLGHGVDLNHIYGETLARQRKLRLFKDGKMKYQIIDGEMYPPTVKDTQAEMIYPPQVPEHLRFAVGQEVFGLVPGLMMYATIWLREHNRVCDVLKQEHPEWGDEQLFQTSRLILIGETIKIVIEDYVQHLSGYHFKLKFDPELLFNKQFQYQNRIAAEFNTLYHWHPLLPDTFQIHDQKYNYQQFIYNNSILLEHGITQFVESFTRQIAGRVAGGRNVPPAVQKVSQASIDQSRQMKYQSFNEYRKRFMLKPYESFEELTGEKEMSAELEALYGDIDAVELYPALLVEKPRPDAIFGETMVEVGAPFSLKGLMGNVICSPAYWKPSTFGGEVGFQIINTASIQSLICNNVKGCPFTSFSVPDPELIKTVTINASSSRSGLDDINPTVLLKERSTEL
Procedure: as §1, §2, §3

[1] = tested on: Salmonella typhimurium TA98 (frameshift mutations); assay type: cell-based; conditions: for mutagenicity classification against TA98: presence/absence of metabolic activation (S9)
Procedure: Salmonella typhimurium strains, TA98 (frameshift mutations) and TA100 (base-pair substitutions), are used in this assay. Concentration range of the compounds was between […] and 5000 µg/mL according to the previous guidelines. Compounds were prepared in six different concentrations (5, 2.5, 1.25, 0.625, 0.3125 and 0.156 mg/mL) in DMSO. Mutagenic potential was determined in absence and presence of Aroclor™-1254 induced male Sprague–Dawley rat liver microsomal enzyme (S9) mix (Xenometrix AG, Switzerland). Positive controls without S9 mix were 2-Nitrofluorene (2 µg/mL) and 4-nitroquinoline N-oxide (0.1 µg/mL) whereas 1 and 2.5 µg/mL of 2-aminoanthracene solutions were used as positive controls with S9 against TA 98 and TA100, respectively. Solvent control was prepared with 4% DMSO. At the end of the experiment, revertant bacteria dropped the pH of solution and indicator medium color was changed to yellow. Yellow wells were counted as positive and compared with the negative control. Fold induction over the negative control and fold induction over the baseline were calculated. Fold induction over the negative control is the ratio of the mean number of positive wells for the dose concentration divided by the mean number of positive wells for the zero dose (negative) control. Fold induction over the baseline is the ratio of the mean number of positive wells for the dose concentration divided by zero dose baseline. The zero dose baseline is obtained by adding one standard deviation to the mean number of positive wells of the zero dose control. Mutagenicity was determined according to the criteria from previous studies[52]^,[56]. For a value ≤3 and significant increases between two and three-fold the baselines were classified as a weak mutagen, and increases ≥ three-fold the baselines were classified as a mutagen. […] As a rule, at least two adjacent doses with significant increases or a significant increase at the highest dose level should be observed for a mutagenic compound. All doses were compared according to Student’s t-test at p < .05 for statistical significance.
Ames assay was performed to investigate the genotoxicity of compounds 6h and 6l.

SMILES	SI (selectivity index) (COX-1)	IC50 (COX-1) [µM]	Selectivity (COX-1)	IC50 (COX-2) [µM]	Revertants fold increase (over baseline) TA 98 S9− ([1]; 0.156 mg/mL)	Revertants fold increase (over baseline) TA 98 S9+ ([1]; 0.3125 mg/mL)	Revertants fold increase (over baseline) TA 98 S9− ([1]; 0.3125 mg/mL)	Revertants fold increase (over baseline) TA 98 S9+ ([1]; 0.625 mg/mL)	Revertants fold increase (over baseline) TA 98 S9− ([1]; 0.625 mg/mL)	Revertants fold increase (over baseline) TA 98 S9+ ([1]; 1.25 mg/mL)	Revertants fold increase (over baseline) TA 98 S9− ([1]; 1.25 mg/mL)	Revertants fold increase (over baseline) TA 98 S9+ ([1]; 2.5 mg/mL)	Revertants fold increase (over baseline) TA 98 S9− ([1]; 2.5 mg/mL)	Revertants fold increase (over baseline) TA 98 S9+ ([1]; 5 mg/mL)	Revertants fold increase (over baseline) TA 98 S9− ([1]; 5 mg/mL)	mutagenicity classification against TA98 [1]	melting point [°C]	Revertants fold increase (over baseline) TA 98 S9+ ([1]; 0.156 mg/mL)
COc1ccc2sc(SCc3ccc(C(C)C(=O)O)cc3)nc2c1 (centres unmarked) [Compound 6h, 2-(4-(((5-Methoxybenzo[d]thiazol-2-yl)thio)methyl)phenyl)propanoic acid]	0.59	1.76	COX-1	2.96	0.56	0.52	0.56	0.70	0.60	0.17	0.73	1.05	0.22^a	0.87	0.17^a	non-mutagenic	166.5 to 168.2	–
COc1ccc2[nH]c(SCc3ccc(C(C)C(=O)O)cc3)nc2c1 (centres unmarked) [Compound 6l, 2-(4-(((5-Methoxy-1H-benzo[d]imidazol-2-yl)thio)methyl)phenyl)propanoic acid]	0.60	1.4	COX-1	2.34	0.57	0.50	0.31^a	0.75	0.61	0.08^a	0.04a	0.00^a	0.00^a	0.00^a	0.04^a	non-mutagenic	175.6 to 178.4	0.17^a
